Results from patent US20230212144A1, “5-MEMBERED HETEROARYL DERIVATIVE CONTAINING AT LEAST ONE N, AND PHARMACEUTICAL COMPOSITION FOR PREVENTING OR TREATING MENTAL DISORDERS, CONTAINING SAME AS ACTIVE INGREDIENT” (DAEGU-GYEONGBUK MEDICAL INNOVATION FOUNDATION, priority 2020, published 2023).

What was measured:
[1] = molecular target: norepinephrine transporter (NET) (Homo sapiens, UniProt P23975); test: Norepinephrine reuptake inhibition, [3H]-NE, cells transfected with NE transporter cDNA; settings: for Triple reuptake inhibition (Ratio %) NET: compound 1 μM, relative to control without compound (100%), lower value = stronger inhibition
Chain of norepinephrine transporter (NET) (P23975 whole entry, species assumed): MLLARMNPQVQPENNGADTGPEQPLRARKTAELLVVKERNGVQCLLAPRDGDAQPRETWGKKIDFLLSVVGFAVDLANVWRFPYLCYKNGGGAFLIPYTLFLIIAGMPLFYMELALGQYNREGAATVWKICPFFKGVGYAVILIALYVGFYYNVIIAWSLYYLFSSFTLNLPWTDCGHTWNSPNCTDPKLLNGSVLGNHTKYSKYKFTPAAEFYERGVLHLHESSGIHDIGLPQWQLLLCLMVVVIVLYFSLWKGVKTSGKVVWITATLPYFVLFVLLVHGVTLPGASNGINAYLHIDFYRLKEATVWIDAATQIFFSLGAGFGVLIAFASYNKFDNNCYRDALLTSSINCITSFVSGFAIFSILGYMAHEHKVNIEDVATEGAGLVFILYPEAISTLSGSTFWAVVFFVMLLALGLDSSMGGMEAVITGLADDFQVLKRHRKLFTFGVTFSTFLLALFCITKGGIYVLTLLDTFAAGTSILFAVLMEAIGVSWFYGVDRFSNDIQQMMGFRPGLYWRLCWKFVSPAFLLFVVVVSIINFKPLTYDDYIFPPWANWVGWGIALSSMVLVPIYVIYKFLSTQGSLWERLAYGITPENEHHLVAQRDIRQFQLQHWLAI
Experimental: (§1) After removing the medium, each compound of Examples or Comparative Examples diluted to 1 μM in uptake buffer was added to a concentration of 200 μL/well and cultured at 37° C. for 15 minutes. 100 μL of uptake buffer containing 20-30 nM [3H]-DA was added and cultured at 37° C. for 5 minutes. The reaction solution was quickly removed and washed three times with 1 mL ice-cold uptake buffer. After dissolving the resultant in 1% SDS (0.5 mL), the degree of binding of radioisotope-labeled dopamine to the transporter was measured.
(§2) For norepinephrine(NE) and serotonin(5-HT), the degree of binding of radioisotope-labeled norepinephrine or serotonin to the transporter was measured in the same manner as above, except that cells transfected with NE or 5-HT transporter cDNA were used and [3H]-NE or [3H]-5-HT was used as a substrate.
(§3) In addition, when evaluating the reuptake inhibitory effect on dopamine, norepinephrine, and serotonin, the same method was performed without treating each compound of Examples or Comparative Examples as a control, the degree of binding of radioisotope-labeled dopamine, norepinephrine, and serotonin to the transporter was measured, and by using this as a reference (100%), the triple reuptake inhibitory effect was evaluated as a relative ratio (Ratio %). That is, in the control group, the binding of dopamine, norepinephrine, and serotonin to transporters is not inhibited, but when each compound of Examples is treated and thus the binding is inhibited, the Ratio % value decreases.

[2] = molecular target: serotonin transporter (SERT) (Homo sapiens, UniProt P31645); test: Serotonin reuptake inhibition, [3H]-5-HT, cells transfected with 5-HT transporter cDNA; settings: for Triple reuptake inhibition (Ratio %) SERT: compound 1 μM, relative to control without compound (100%), lower value = stronger inhibition
Chain of serotonin transporter (SERT) (P31645 whole entry, species assumed): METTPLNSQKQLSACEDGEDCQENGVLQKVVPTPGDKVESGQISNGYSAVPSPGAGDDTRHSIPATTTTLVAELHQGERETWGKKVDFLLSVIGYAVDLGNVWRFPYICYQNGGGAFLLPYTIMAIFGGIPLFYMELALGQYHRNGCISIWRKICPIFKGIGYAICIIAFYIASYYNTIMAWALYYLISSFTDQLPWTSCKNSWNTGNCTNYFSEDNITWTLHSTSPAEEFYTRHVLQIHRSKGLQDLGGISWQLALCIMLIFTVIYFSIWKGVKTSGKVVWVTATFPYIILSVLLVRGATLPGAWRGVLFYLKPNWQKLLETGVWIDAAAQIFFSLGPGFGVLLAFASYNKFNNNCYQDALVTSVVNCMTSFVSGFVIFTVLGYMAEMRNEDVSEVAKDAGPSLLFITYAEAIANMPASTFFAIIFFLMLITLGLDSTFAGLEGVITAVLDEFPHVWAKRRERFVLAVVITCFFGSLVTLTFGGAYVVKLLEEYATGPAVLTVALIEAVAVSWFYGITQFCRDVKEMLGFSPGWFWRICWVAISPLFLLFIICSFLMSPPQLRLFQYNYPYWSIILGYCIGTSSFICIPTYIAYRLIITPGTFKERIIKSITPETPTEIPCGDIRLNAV
Experimental: as §1, §2, §3

[3] = molecular target: dopamine transporter (DAT) (Homo sapiens, UniProt Q01959); test: Dopamine reuptake inhibition, [3H]-DA, HEK-293 cells transfected with dopamine transporter cDNA; settings: for Triple reuptake inhibition (Ratio %) DAT: compound 1 μM, relative to control without compound (100%), lower value = stronger inhibition
Chain of dopamine transporter (DAT) (Q01959 whole entry, species assumed): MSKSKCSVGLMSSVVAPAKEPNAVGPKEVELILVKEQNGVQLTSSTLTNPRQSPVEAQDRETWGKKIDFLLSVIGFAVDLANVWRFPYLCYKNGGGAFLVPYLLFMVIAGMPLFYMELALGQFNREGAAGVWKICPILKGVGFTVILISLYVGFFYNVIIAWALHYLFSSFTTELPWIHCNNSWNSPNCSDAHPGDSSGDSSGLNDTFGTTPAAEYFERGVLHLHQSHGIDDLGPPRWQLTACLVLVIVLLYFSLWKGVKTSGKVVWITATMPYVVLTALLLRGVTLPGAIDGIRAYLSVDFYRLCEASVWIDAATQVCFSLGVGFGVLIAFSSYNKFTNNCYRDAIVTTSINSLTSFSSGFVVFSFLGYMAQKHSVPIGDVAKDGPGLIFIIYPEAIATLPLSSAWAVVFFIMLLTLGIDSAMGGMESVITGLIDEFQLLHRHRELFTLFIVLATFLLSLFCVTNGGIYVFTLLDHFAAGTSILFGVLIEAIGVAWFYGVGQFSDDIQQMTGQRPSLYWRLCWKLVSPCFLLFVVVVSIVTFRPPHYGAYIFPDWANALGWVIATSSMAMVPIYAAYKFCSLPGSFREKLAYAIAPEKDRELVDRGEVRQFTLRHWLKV
Experimental: as §1, §3

Row | SMILES | IC50 [1] [nM] | Triple reuptake inhibition (Ratio %) NET [1] [%] | IC50 [2] [nM] | Triple reuptake inhibition (Ratio %) SERT [2] [%] | IC50 [3] [nM] | Triple reuptake inhibition (Ratio %) DAT [3] [%]
1 | FC(F)(F)c1ccc(-c2nnc(CN3CCC(Cc4ccccc4)CC3)[nH]2)cc1 [Example 50, 4-benzyl-1-((5-(4-(trifluoromethyl)phenyl)-4H-1,2,4-triazol-3-yl)methyl)piperidine] | 176 | 27.46 | 5700 | 66.02 | 236 | 20.84
2 | CC(=O)Nc1ccc(-c2nnc(CN3CCC(Cc4ccccc4)CC3)[nH]2)cc1 [Example 51, N-(4-(5-((4-benzylpiperidin-1-yl)methyl)-4H-1,2,4-triazol-3-yl)phenyl)acetamide] | – | 56.36 | – | 38.36 | – | 75.88
3 | Oc1ccc2cc(-c3nnc(CN4CCC(Cc5ccccc5)CC4)[nH]3)ccc2c1 [Example 52, 6-(5-((4-benzylpiperidin-1-yl)methyl)-4H-1,2,4-triazol-3-yl)naphthalen-2-ol] | – | 50.92 | – | 52.31 | – | 48.72
4 | c1ccc(CC2CCN(Cc3nnc(-c4ccc(Oc5ccccc5)cc4)[nH]3)CC2)cc1 [Example 53, 4-benzyl-1-((5-(4-phenoxyphenyl)-4H-1,2,4-triazol-3-yl)methyl)piperidine] | – | 28.99 | – | 77.61 | – | 52.90
5 | FC(F)(F)Oc1cccc(-c2nnc(CN3CCC(Cc4ccccc4)CC3)[nH]2)c1 [Example 54, 4-benzyl-1-((5-(3-(trifluoromethoxy)phenyl)-4H-1,2,4-triazol-3-yl)methyl)piperidine] | – | 52.40 | – | 88.15 | – | 38.97
6 | FC(F)(F)c1cccc(-c2nnc(CN3CCC(Cc4ccccc4)CC3)[nH]2)c1 [Example 55, 4-benzyl-1-((5-(3-(trifluoromethyl)phenyl)-4H-1,2,4-triazol-3-yl)methyl)piperidine] | – | 66.71 | – | 86.78 | – | 40.14
7 | CN(C)CCNC(=O)c1ccc(-c2nnc(CN3CCC(Cc4ccccc4)CC3)[nH]2)cc1 [Example 58, 4-(5-((4-benzylpiperidin-1-yl)methyl)-4H-1,2,4-triazol-3-yl)-N-(2-(dimethylamino)ethyl)benzoamide] | – | 76.51 | – | 50.24 | – | 77.67
8 | Fc1ccc2[nH]c(-c3nnc(CN4CCN(Cc5ccccc5)CC4)[nH]3)cc2c1 [Example 64, 2-(5-((4-benzylpiperazin-1-yl)methyl)-4H-1,2,4-triazol-3-yl)-5-fluoro-1H-indole] | – | 64.96 | – | 91.98 | – | 32.65

The remaining lines, values ahead:

Row | IC50 [1] [nM] | Triple reuptake inhibition (Ratio %) NET [1] [%] | IC50 [2] [nM] | Triple reuptake inhibition (Ratio %) SERT [2] [%] | IC50 [3] [nM] | Triple reuptake inhibition (Ratio %) DAT [3] [%] | SMILES
9 | 640 | 39.66 | 300 | 15.26 | 1200 | 45.52 | COc1ccc2c(-c3nnc(CN4CCC(Cc5ccccc5)CC4)[nH]3)c[nH]c2c1 [Example 56, 3-(5-((4-benzylpiperidin-1-yl)methyl)-4H-1,2,4-triazol-3-yl)-6-methoxy-1H-indole]
10 | 463 | 37.21 | 580 | 56.55 | 208 | 20.95 | NC(=O)c1ccc2[nH]c(-c3nnc(CN4CCC(Cc5ccccc5)CC4)[nH]3)cc2c1 [Example 57, 2-(5-((4-benzylpiperidin-1-yl)methyl)-4H-1,2,4-triazol-3-yl)-1H-indol-5-carboxamide]
11 | – | 77.82 | 226 | 31.88 | – | 75.06 | COc1ccc2c(-c3nnc(CN4CCC(Cc5ccc(Cl)c(Cl)c5)CC4)[nH]3)c[nH]c2c1 [Example 59, 3-(5-((4-(3,4-dichlorobenzyl)piperidin-1-yl)methyl)-4H-1,2,4-triazol-3-yl)-6-methoxy-1H-indole]
12 | – | 95.63 | 1870 | 61.70 | – | 94.44 | COC(=O)c1cccc2c(-c3nnc(CN4CCC(Cc5ccc(Cl)c(Cl)c5)CC4)[nH]3)c[nH]c12 [Example 60, methyl 3-(5-((4-(3,4-dichlorobenzyl)piperidin-1-yl)methyl)-4H-1,2,4-triazol-3-yl)-1H-indol-7-carboxylate]
13 | – | 48.25 | – | 82.77 | – | 59.39 | FC(F)(F)Oc1ccc(-c2nnc(CN3CCC(Cc4ccc(Cl)c(Cl)c4)CC3)[nH]2)cc1 [Example 61, 4-(3,4-dichlorobenzyl)-1-((5-(4-(trifluoromethoxy)phenyl)-4H-1,2,4-triazol-3-yl)methyl)piperidine]
14 | – | 36.41 | – | 79.73 | – | 52.96 | FC(F)(F)c1ccc(-c2nnc(CN3CCC(Cc4ccc(Cl)c(Cl)c4)CC3)[nH]2)cc1 [Example 62, 4-(3,4-dichlorobenzyl)-1-((5-(4-(trifluoromethyl)phenyl)-4H-1,2,4-triazol-3-yl)methyl)piperidine]
15 | 327 | 27.25 | 1840 | 61.10 | 221 | 26.54 | COC(=O)c1ccc(-c2nnc(CN3CCC(Cc4ccccc4)CC3)[nH]2)cc1N [Example 63, methyl 2-amino-4-(5-((4-benzylpiperidin-1-yl)methyl)-4H-1,2,4-triazol-3-yl)benzoate]
16 | – | 67.11 | – | 92.53 | – | 28.61 | Clc1ccc2[nH]c(-c3nnc(CN4CCN(Cc5ccccc5)CC4)[nH]3)cc2c1 [Example 65, 2-(5-((4-benzylpiperazin-1-yl)methyl)-4H-1,2,4-triazol-3-yl)-5-chloro-1H-indole]
